{"source": "patent US8119998B2", "about": "“Methods and systems for in situ physicochemical property testing” (Pion, Inc., priority 2008, dated 2012)", "test": "Miniaturized rotating disk dissolution and solubility of pressed pellet, biexponential fit", "assay_type": "physicochemical", "conditions": "pressed pellet 3.9 mm, five replicate profiles, 180 selected points, FIG. 12", "method": "This example is based on the dissolution and solubility characteristics of the model drug carbamazepine, with data collected on a prototype instrument, utilizing a miniaturized rotating disk of pressed compound held as a pellet in a small stainless steel die. The average diameter of the pellets of material was measured to be 3.9 mm, corresponding to a nominal area of 0.12 cm^2, and the minimal amount of compound needed to make such pellets was about 5 mg, although more may be used. In this example, the solution volume was 15 mL, larger than the preferred volume of 3 mL. Over 1100 concentration measurements were acquired, in five replicate dissolution profiles. […] The powder “burst” would be associated with a high surface area, but would be limited to a small quantity of material: [formula] […] 2 with respect to time, evaluated at t=to, in the units of μg/min (with PABL in cm/s units), is DR^max=(Cpowder·Apowder+[…]·60 [3] The factor of 60 accounts for the conversion of ABL permeability into cm/min units. Intrinsic dissolution rate (IDR) is calculated as IDR=DR^max/Aeff, where Aeff is the effective area of the solid phase in contact with bulk solution. The effective surface area is defined as Aeff=δApowder+(1-δ)[…], where δ=[…]). The IDR is the maximum flux of material entering the solution phase through the interface solid-liquid interface (often evaluated at time near zero). […]", "data": [{"smiles": "NC(=O)N1c2ccccc2C=Cc2ccccc21", "note": "[carbamazepine]", "values": [{"measurement": "IDR (intrinsic dissolution rate)", "setting": "nominal area 0.12 cm^2, 15 mL", "value": "25±1", "unit": "μg/cm^2·min"}, {"measurement": "solubility", "setting": "thermodynamic from solid, 15 mL, read-out: S (solubility)", "value": "225 ± 6", "unit": "µg/mL"}]}]}
